According to ChEMBL document CHEMBL3991601, “The target landscape of clinical kinase drugs” (Science, 2017):
Calls of active or inactive are those of the source. Cut-off read from the data, not from the text of the source, for most assays here: actives have a measured Kd and inactives only a lower limit.

Legend:
[1] = target: AP2-associated protein kinase 1 (Homo sapiens, UniProt Q2M2I8)
[2] = target: Serine/threonine-protein kinase B-raf (Homo sapiens, UniProt P15056)
[3] = target: Cyclin-dependent kinase 4 (Homo sapiens, UniProt P11802)
[4] = target: Tyrosine-protein kinase HCK (Homo sapiens, UniProt P08631)
[5] = target: T1, Dual specificity mitogen-activated protein kinase kinase 3 (Homo sapiens, UniProt P46734)
T1 sequence (P46734 whole entry): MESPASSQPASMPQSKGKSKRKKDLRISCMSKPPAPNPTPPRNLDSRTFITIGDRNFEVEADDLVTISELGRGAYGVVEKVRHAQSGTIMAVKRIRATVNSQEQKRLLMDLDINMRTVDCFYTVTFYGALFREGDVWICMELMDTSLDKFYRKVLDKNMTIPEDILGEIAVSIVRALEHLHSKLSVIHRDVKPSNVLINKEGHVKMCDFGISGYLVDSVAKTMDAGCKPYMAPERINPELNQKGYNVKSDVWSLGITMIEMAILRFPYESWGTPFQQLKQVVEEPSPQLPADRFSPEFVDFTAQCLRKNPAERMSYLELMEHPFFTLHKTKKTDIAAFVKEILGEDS

[6] = target: Mitogen-activated protein kinase kinase kinase kinase 1 (Homo sapiens, UniProt Q92918)
[7] = target: Mitogen-activated protein kinase kinase kinase kinase 4 (Homo sapiens, UniProt O95819)
[8] = target: Myosin light chain kinase, smooth muscle (Homo sapiens, UniProt Q15746)
[9] = target: T2, RNA cytidine acetyltransferase (Homo sapiens, UniProt Q9H0A0)
T2 sequence (Q9H0A0 whole entry): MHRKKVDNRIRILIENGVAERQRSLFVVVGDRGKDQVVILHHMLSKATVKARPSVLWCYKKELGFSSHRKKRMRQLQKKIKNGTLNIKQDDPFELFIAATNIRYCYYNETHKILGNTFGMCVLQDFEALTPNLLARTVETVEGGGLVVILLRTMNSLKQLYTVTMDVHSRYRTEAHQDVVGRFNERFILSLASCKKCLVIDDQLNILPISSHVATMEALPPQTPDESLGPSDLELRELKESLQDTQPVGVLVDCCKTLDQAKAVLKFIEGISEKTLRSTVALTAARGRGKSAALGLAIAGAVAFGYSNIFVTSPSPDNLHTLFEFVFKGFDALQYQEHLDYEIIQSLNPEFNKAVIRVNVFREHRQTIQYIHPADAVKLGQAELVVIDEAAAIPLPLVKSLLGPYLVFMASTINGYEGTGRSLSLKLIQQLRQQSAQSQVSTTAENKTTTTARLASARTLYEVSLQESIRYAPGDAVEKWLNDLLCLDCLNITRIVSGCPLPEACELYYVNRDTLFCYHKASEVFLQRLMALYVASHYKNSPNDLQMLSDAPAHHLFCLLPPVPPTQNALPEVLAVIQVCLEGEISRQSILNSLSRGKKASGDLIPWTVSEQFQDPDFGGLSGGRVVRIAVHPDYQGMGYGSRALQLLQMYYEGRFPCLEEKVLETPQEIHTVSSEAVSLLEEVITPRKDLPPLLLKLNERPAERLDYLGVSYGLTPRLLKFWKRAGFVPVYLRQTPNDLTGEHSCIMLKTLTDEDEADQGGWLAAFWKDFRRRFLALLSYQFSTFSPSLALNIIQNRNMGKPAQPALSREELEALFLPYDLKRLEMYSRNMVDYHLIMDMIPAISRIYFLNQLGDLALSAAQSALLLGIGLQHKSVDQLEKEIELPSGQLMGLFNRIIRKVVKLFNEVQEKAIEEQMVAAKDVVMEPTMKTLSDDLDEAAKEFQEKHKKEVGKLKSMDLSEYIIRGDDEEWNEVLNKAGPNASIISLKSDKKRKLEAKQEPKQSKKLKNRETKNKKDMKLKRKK

[10] = target: Receptor-interacting serine/threonine-protein kinase 2 (Homo sapiens, UniProt O43353)
[11] = target: T3, Serine/threonine-protein kinase TAO1 (Homo sapiens, UniProt Q7L7X3)
T3 sequence (Q7L7X3 whole entry): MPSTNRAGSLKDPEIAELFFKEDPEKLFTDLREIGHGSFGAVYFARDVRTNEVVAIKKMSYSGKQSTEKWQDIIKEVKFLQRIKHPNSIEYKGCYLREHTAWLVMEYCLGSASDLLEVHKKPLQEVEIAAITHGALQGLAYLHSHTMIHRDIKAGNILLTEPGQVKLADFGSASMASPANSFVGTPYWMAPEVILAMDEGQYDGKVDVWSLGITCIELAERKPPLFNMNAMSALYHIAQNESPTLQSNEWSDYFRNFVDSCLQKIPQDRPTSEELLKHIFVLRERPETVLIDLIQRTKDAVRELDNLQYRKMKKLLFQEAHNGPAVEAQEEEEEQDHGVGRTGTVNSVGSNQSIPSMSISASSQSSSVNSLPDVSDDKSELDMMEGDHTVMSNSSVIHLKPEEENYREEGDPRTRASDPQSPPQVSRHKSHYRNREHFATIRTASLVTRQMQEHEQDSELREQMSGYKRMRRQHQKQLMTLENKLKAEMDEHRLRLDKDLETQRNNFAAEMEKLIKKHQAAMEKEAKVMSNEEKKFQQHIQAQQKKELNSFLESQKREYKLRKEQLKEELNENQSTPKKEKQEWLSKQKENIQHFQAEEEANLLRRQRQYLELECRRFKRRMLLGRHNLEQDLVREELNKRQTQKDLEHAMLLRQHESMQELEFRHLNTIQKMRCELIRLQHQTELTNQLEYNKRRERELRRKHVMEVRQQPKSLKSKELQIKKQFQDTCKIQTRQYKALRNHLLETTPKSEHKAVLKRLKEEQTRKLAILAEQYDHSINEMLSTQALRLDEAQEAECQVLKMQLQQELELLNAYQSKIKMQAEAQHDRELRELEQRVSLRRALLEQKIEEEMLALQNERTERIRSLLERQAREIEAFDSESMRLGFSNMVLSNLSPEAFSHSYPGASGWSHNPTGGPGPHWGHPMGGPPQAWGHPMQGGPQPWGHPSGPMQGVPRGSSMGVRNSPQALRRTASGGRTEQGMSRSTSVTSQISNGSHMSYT
Note: in the data inactive means no Kd found up to 30 µM.

AP2-associated protein kinase 1, sequence (Q2M2I8 whole entry): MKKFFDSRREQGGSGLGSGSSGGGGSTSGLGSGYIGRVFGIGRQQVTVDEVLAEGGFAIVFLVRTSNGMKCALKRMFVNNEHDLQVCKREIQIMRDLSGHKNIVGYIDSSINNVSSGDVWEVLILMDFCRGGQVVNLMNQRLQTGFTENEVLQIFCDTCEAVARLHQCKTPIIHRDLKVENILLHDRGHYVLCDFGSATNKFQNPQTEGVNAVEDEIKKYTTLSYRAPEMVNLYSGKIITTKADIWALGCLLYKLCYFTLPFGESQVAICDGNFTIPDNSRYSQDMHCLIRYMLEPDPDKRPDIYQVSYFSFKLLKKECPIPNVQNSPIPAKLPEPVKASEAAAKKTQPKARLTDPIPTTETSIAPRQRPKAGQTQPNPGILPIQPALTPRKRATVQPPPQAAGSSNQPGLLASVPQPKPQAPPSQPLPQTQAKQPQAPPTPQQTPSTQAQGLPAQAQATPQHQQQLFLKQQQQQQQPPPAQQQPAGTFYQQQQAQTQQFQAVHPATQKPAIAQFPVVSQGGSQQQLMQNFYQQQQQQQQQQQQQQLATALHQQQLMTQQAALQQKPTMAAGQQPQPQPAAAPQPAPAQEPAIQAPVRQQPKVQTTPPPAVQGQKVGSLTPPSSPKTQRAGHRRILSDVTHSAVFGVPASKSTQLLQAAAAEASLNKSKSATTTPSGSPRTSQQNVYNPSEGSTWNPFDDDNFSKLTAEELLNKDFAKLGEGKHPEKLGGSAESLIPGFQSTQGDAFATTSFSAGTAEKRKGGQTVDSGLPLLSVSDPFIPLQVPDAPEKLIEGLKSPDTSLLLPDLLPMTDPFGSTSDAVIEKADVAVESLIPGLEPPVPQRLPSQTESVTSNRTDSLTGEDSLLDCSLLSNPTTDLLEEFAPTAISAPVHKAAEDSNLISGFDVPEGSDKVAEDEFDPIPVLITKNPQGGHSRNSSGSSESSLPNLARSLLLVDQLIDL
Mitogen-activated protein kinase kinase kinase kinase 1, sequence (Q92918 whole entry): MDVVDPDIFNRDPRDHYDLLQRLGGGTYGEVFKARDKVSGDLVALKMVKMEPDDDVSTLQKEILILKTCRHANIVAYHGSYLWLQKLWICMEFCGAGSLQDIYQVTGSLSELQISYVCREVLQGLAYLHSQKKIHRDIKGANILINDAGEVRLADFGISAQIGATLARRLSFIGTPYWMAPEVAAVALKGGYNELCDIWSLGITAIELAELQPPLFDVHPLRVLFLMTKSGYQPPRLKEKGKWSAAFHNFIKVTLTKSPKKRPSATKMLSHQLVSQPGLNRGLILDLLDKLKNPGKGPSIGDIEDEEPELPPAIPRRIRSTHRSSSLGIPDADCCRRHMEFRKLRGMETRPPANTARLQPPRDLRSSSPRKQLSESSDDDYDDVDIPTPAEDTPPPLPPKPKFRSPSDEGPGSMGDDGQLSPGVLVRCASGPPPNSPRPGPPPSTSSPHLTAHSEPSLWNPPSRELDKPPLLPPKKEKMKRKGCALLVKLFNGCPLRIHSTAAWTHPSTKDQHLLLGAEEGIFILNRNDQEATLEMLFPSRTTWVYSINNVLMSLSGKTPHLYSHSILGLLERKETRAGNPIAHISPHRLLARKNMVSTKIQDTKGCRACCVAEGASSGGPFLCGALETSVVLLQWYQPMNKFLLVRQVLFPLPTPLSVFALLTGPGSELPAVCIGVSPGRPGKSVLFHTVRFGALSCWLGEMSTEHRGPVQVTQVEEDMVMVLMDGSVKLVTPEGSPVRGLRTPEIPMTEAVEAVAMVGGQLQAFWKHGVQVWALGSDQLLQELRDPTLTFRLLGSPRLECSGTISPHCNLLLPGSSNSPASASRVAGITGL
Serine/threonine-protein kinase B-raf, sequence (P15056 whole entry): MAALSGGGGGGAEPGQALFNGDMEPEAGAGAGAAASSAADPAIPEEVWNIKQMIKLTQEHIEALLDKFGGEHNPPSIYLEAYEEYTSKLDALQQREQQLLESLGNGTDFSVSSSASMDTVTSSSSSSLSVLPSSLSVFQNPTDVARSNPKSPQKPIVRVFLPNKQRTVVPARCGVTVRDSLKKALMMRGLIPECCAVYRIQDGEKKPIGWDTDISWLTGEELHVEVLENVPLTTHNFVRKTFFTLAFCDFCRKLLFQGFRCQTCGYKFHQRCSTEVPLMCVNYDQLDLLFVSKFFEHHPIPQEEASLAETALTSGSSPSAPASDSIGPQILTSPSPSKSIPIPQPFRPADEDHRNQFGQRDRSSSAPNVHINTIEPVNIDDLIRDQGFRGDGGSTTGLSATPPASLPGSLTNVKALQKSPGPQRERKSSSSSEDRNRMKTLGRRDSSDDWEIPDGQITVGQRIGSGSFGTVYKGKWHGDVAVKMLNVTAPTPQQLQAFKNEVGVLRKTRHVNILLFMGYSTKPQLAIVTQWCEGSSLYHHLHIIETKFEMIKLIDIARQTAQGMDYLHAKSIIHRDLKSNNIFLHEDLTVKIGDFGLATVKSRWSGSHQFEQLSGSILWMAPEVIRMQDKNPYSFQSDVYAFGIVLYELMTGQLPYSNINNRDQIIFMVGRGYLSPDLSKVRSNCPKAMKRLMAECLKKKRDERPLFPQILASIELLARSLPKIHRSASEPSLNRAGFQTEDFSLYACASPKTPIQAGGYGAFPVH
Receptor-interacting serine/threonine-protein kinase 2, sequence (O43353 whole entry): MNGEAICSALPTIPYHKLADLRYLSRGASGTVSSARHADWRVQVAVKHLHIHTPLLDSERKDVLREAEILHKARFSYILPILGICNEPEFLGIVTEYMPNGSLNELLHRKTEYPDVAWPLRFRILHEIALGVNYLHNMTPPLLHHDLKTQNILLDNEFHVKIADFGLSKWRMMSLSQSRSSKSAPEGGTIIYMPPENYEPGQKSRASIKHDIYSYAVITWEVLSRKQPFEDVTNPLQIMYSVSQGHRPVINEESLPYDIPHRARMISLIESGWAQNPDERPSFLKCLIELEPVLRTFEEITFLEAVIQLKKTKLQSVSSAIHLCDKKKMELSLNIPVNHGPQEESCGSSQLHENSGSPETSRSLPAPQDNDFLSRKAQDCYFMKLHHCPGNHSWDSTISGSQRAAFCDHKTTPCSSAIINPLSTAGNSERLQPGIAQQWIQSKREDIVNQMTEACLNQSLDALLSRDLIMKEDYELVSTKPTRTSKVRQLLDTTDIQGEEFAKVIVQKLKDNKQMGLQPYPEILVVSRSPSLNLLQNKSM
Tyrosine-protein kinase HCK, sequence (P08631 whole entry): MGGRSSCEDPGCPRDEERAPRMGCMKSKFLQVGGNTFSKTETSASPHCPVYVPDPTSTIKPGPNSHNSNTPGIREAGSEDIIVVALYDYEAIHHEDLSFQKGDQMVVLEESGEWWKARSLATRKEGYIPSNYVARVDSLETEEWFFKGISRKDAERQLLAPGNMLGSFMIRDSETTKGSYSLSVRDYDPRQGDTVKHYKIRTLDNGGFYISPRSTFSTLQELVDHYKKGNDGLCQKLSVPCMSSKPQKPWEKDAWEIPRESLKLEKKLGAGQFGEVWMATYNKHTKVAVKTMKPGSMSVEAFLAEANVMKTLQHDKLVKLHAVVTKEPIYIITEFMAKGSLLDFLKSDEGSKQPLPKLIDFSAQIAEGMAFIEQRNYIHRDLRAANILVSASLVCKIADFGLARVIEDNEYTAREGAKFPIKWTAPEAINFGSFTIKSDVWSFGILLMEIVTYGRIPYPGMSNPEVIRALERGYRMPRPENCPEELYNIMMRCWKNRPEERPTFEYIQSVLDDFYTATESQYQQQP
Cyclin-dependent kinase 4, sequence (P11802 whole entry): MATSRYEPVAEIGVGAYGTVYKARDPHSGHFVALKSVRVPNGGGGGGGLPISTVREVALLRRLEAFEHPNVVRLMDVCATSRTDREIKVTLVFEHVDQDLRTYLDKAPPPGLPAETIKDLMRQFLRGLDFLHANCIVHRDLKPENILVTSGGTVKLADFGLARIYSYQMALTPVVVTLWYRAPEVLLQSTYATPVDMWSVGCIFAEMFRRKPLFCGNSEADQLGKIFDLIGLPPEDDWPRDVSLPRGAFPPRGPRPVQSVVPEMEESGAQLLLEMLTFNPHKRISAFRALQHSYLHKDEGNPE

Structure (SMILES)	Kd [1]	Kd [2]	Kd [3]	Kd [4]	Kd [5]	Kd [6]	Kd [7]	Kd [8]	Kd [9]	Kd [10]	Kd [11]
Cc1c(F)cc(C(=O)NC2CC2)cc1-c1ccc(C(=O)NCC(C)(C)C)cn1 [LOSMAPIMOD]	> 30 µM (inactive)	> 30 µM (inactive)	> 30 µM (inactive)	> 30 µM (inactive)	> 30 µM (inactive)	> 30 µM (inactive)	> 30 µM (inactive)	> 30 µM (inactive)	> 30 µM (inactive)	> 30 µM (inactive)	> 30 µM (inactive)
C1=C/COCc2cc(ccc2OCCN2CCCC2)Nc2nccc(n2)-c2cccc(c2)COC/1 [PACRITINIB]	0.042 µM (active)	> 30 µM (inactive)	> 30 µM (inactive)	> 30 µM (inactive)	> 30 µM (inactive)	0.16 µM	0.293 µM (active)	> 30 µM (inactive)	> 30 µM (inactive)	> 30 µM (inactive)	2.19 µM (active)
Cc1ccc(-n2nc(C(C)(C)C)cc2NC(=O)NCc2cc(F)ccc2Oc2ccc3c(cnn3CCO)c2)cc1 [PEXMETINIB]	> 30 µM (inactive)	5.23 µM (active)	> 30 µM (inactive)	> 30 µM (inactive)	> 30 µM (inactive)	> 30 µM (inactive)	0.222 µM (active)	0.081 µM	> 30 µM (inactive)	> 30 µM (inactive)	> 30 µM (inactive)
C=CC(=O)N1CCC(Oc2cc3c(Nc4ccc(Cl)c(Cl)c4F)ncnc3cc2OC)CC1 [POZIOTINIB]	> 30 µM (inactive)	> 30 µM (inactive)	> 30 µM (inactive)	> 30 µM (inactive)	> 30 µM (inactive)	> 30 µM (inactive)	> 30 µM (inactive)	> 30 µM (inactive)	> 30 µM (inactive)	0.048 µM (active)	> 30 µM (inactive)
COc1cc(OC)c(/C=C/S(=O)(=O)Cc2ccc(OC)c(NCC(=O)O)c2)c(OC)c1 [RIGOSERTIB]	> 30 µM (inactive)	> 30 µM (inactive)	> 30 µM (inactive)	> 30 µM (inactive)	> 30 µM (inactive)	> 30 µM (inactive)	> 30 µM (inactive)	> 30 µM (inactive)	> 30 µM (inactive)	> 30 µM (inactive)	> 30 µM (inactive)
CNC(=O)CN1CCC(Oc2cc3c(Nc4cccc(Cl)c4F)ncnc3cc2OC)CC1 [SAPITINIB]	> 30 µM (inactive)	> 30 µM (inactive)	> 30 µM (inactive)	> 30 µM (inactive)	> 30 µM (inactive)	> 30 µM (inactive)	> 30 µM (inactive)	> 30 µM (inactive)	> 30 µM (inactive)	0.751 µM (active)	> 30 µM (inactive)
C[C@@H]1CN(Cc2ccc(F)cc2)[C@@H](C)CN1C(=O)c1cc2c(C(=O)C(=O)N(C)C)cn(C)c2cc1Cl [TALMAPIMOD]	> 30 µM (inactive)	> 30 µM (inactive)	> 30 µM (inactive)	> 30 µM (inactive)	> 30 µM (inactive)	> 30 µM (inactive)	> 30 µM (inactive)	> 30 µM (inactive)	> 30 µM (inactive)	> 30 µM (inactive)	> 30 µM (inactive)
CN1CCC(COc2cnc(-c3cccc(Cn4nc(-c5cccc(C#N)c5)ccc4=O)c3)nc2)CC1 [TEPOTINIB]	> 30 µM (inactive)	> 30 µM (inactive)	> 30 µM (inactive)	> 30 µM (inactive)	> 30 µM (inactive)	> 30 µM (inactive)	> 30 µM (inactive)	> 30 µM (inactive)	> 30 µM (inactive)	> 30 µM (inactive)	> 30 µM (inactive)
O=c1sn(-c2cccc3ccccc23)c(=O)n1Cc1ccccc1 [TIDEGLUSIB]	> 30 µM (inactive)	> 30 µM (inactive)	> 30 µM (inactive)	> 30 µM (inactive)	> 30 µM (inactive)	> 30 µM (inactive)	> 30 µM (inactive)	> 30 µM (inactive)	> 30 µM (inactive)	> 30 µM (inactive)	> 30 µM (inactive)

Continued, values first:

Kd [1]	Kd [2]	Kd [3]	Kd [4]	Kd [5]	Kd [6]	Kd [7]	Kd [8]	Kd [9]	Kd [10]	Kd [11]	Structure (SMILES)
> 30 µM (inactive)	> 30 µM (inactive)	> 30 µM (inactive)	> 30 µM (inactive)	> 30 µM (inactive)	> 30 µM (inactive)	> 30 µM (inactive)	> 30 µM (inactive)	> 30 µM (inactive)	> 30 µM (inactive)	> 30 µM (inactive)	Cn1cc(-c2ccc(F)c(C(F)(F)F)c2)nc1C1CCN(c2ncnc3[nH]ncc23)CC1 [LY-2584702]
> 30 µM (inactive)	> 30 µM (inactive)	> 30 µM (inactive)	> 30 µM (inactive)	> 30 µM (inactive)	> 30 µM (inactive)	> 30 µM (inactive)	> 30 µM (inactive)	> 30 µM (inactive)	> 30 µM (inactive)	> 30 µM (inactive)	O=C(O)[C@]1(Cc2cccc(Nc3nccs3)n2)CC[C@@H](Oc2cccc(Cl)c2F)CC1 [MK-5108]
> 30 µM (inactive)	> 30 µM (inactive)	> 30 µM (inactive)	> 30 µM (inactive)	> 30 µM (inactive)	> 30 µM (inactive)	> 30 µM (inactive)	> 30 µM (inactive)	> 30 µM (inactive)	> 30 µM (inactive)	> 30 µM (inactive)	CNC(=O)c1ccc(C)c(-n2c(C)cc(OCc3ccc(F)cc3F)c(Br)c2=O)c1 [PH-797804]
> 30 µM (inactive)	> 30 µM (inactive)	> 30 µM (inactive)	> 30 µM (inactive)	> 30 µM (inactive)	> 30 µM (inactive)	> 30 µM (inactive)	> 30 µM (inactive)	> 30 µM (inactive)	> 30 µM (inactive)	> 30 µM (inactive)	CN1CCC(CNc2ccc3ncc(-c4cccc(OC(F)(F)F)c4)n3n2)CC1 [SGI-1776]
